From US20250340551A1, “SMALL MOLECULE MODULATORS OF STAT6” (Gilead Sciences, Inc., priority 2024, published 2025)

Legend:
human STAT6 = human STAT6 (Homo sapiens (Human), UniProt P42226); experiment: Surface plasmon resonance assay (Biacore 8K, binding to immobilized STAT6); details: human STAT6 aa122-658, N-terminal His-tag, CM5 chip, 25° C.; geometric mean; read-out: STAT6 SPR Kd
Summary of the method: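 Run at 25° C with His-tagged STAT6 aa122-658 (insect-cell expressed) amine-coupled to a CM5 chip, reference-subtracted, in PBS-P+ with 2% DMSO. Multi-cycle kinetics: 60 sec. contact, up to 300 sec. dissociation. Affinity fitted from late report-point binding isotherms, with Rmax both free and fixed to theoretical 1:1.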

[1] = test system: Eotaxin-3 (CCL26) release in human whole blood stimulated with IL-4; experiment: Human whole blood eotaxin-3 assay (IL-4 stimulated, Eotaxin-3 release); type: cell-based; details: Homo sapiens; for Emax: 48 h; for EC50: Hec50, 48 h
Summary of the method: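 Lithium-heparin blood preincubated 2 h at 37° C with 4-fold compound dilutions (0.5% DMSO, triplicates), then stimulated with 400 pM recombinant human IL-4 for 48 h. Eotaxin-3 in plasma supernatant measured by MSD immunoassay.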

human STAT6, sequence (P42226 122-658): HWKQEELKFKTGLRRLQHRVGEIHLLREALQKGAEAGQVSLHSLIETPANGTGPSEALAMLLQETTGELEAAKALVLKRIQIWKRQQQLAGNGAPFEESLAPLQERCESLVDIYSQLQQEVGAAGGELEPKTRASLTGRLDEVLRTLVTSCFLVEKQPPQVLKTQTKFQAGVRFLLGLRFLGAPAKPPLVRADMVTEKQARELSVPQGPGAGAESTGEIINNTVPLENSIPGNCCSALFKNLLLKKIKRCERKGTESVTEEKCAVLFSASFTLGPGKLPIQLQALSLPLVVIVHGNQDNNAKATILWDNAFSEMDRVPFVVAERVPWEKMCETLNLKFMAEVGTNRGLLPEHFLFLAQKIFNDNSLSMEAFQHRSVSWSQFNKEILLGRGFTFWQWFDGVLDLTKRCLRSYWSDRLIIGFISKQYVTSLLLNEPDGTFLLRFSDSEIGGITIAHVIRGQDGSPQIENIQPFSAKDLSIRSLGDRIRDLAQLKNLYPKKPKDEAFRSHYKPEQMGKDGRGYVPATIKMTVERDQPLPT

Kd (human STAT6)	EC50 [1]	Compound	Emax [1]
20.6 nM	–	CNc1ccc(-c2ccnc3c2cc(CN2CC[C@H](c4ccc(C(=O)N(C)C)cc4)[C@H](F)C2)n3C)cn1 (stereo in doubt) [Example 1s28, N,N-dimethyl-4-[(3S,4R)-3-fluoro-1-[[1-methyl-4-[6-(methylamino)-3-pyridyl]pyrrolo[2,3-b]pyridin-2-yl]methyl]-4-piperidyl]benzamide]	76.4%
12.9 nM	246 nM	C[C@H](c1cc2c(-c3ccc(N)nc3)ccnc2n1C)N1CCC(c2ccc(C(=O)N(C)C)cc2)CC1 [Example 1af12, (R)-4-(1-(1-(4-(6-aminopyridin-3-yl)-1-methyl-1H-pyrrolo[2,3-b]pyridin-2-yl)ethyl)piperidin-4-yl)-N,N-dimethylbenzamide]	–
18.5 nM	135 nM	C[C@H](c1cc2c(-c3ccc(N)nc3C#N)ccnc2n1C)N1CCC(c2ccc(C(=O)N(C)C)cc2)CC1 [Example 1af14, (R)-4-(1-(1-(4-(6-amino-2-cyanopyridin-3-yl)-1-methyl-1H-pyrrolo[2,3-b]pyridin-2-yl)ethyl)piperidin-4-yl)-N,N-dimethylbenzamide]	–
31.4 nM	2910 nM	Cc1cc(C(=O)N(C)C)ccc1C1CCN([C@H](C)c2cc3c(-c4ccc(N)cn4)ccnc3n2C)CC1 [Example 1af18, (R)-4-(1-(1-(4-(5-aminopyridin-2-yl)-1-methyl-1H-pyrrolo[2,3-b]pyridin-2-yl)ethyl)piperidin-4-yl)-N,N,3-trimethylbenzamide]	–
40.4 nM	–	C[C@H](c1cc2c(-c3ccc(N)cn3)ccnc2n1C)N1CC=C(c2ccc(C(=O)N(C)C)cc2)CC1 [Example 1af20, (R)-4-(1-(1-(4-(5-aminopyridin-2-yl)-1-methyl-1H-pyrrolo[2,3-b]pyridin-2-yl)ethyl)-1,2,3,6-tetrahydropyridin-4-yl)-N,N-dimethylbenzamide]	76.7%
20 nM	65.4 nM	[2H]C([2H])([2H])N(C(=O)c1ccc(C2=CCN([C@H](C)c3cc4c(-c5ccc(N)nc5C#N)ccnc4n3C)CC2)c(C)c1)C([2H])([2H])[2H] [Example 1af26, (R)-4-(1-(1-(4-(6-amino-2-cyanopyridin-3-yl)-1-methyl-1H-pyrrolo[2,3-b]pyridin-2-yl)ethyl)-1,2,3,6-tetrahydropyridin-4-yl)-3-methyl-N,N-bis(methyl-d3)benzamide]	–
15.7 nM	404 nM	[2H]C([2H])([2H])N(C(=O)c1ccc(C2CCN([C@H](C)c3cc4c(-c5ccc(N)cn5)ccnc4n3C)CC2)cc1)C([2H])([2H])[2H] [Example 1af36, (R)-4-(1-(1-(4-(5-aminopyridin-2-yl)-1-methyl-1H-pyrrolo[2,3-b]pyridin-2-yl)ethyl)piperidin-4-yl)-N,N-bis(methyl-d3)benzamide]	–
57.7 nM	699 nM	[2H]C([2H])([2H])N(C(=O)c1ccc(C2CCN([C@@H](C)c3cc4c(-c5ccc(N)nc5C#N)ccnc4n3C)CC2)c(C)c1)C([2H])([2H])[2H] [Example 1af37, (S)-4-(1-(1-(4-(6-Amino-2-cyanopyridin-3-yl)-1-methyl-1H-pyrrolo[2,3-b]pyridin-2-yl)ethyl)piperidin-4-yl)-3-methyl-N,N-bis(methyl-d3)benzamide]	–
32.7 nM	115 nM	CNc1ccc(-c2ccnc3c2cc([C@H](C)N2CCC(c4ccc(C(=O)N(C)C)cc4)CC2)n3C)c(C#N)n1 [Example 1af39, (S)-4-(1-(1-(4-(2-xyano-6-(methylamino)pyridin-3-yl)-1-methyl-1H-pyrrolo-[2,3-b]pyridin-2-yl)ethyl)piperidin-4-yl)-N,N-dimethylbenzamide]	–
2190 nM	44400 nM	CNc1ccc(-c2ccnc3c2cc([C@@H](C)N2CCC(c4ccc(C(=O)N(C)C)cc4)CC2)n3C)c(C#N)n1 [Example 1af40, (R)-4-(1-(1-(4-(2-cyano-6-(methyl-amino)pyridin-3-yl)-1-methyl-1H-pyrrolo[2,3-b]pyridin-2-yl)ethyl)piperidin-4-yl)-N,N-dimethylbenzamide]	–
352 nM	15900 nM	Cc1cc(C(=O)N(C)C)ccc1C1=CCN([C@@H](C)c2cc3c(-c4ccc(N)nc4C#N)ccnc3n2C)CC1 [Example 1af44, (S)-4-(1-(1-(4-(6-Amino-2-cyanopyridin-3-yl)-1-methyl-1H-pyrrolo[2,3-b]-pyridin-2-yl)ethyl)-1,2,3,6-tetrahydropyridin-4-yl)-N,N,3-trimethylbenzamide]	–
21.6 nM	41 nM	Cc1cc(C(=O)N(C)C)ccc1C1=CCN([C@H](C)c2cc3c(-c4ccc(N)nc4C#N)ccnc3n2C)CC1 [Example 1af45, (R)-4-(1-(1-(4-(6-amino-2-cyanopyridin-3-yl)-1-methyl-1H-pyrrolo[2,3-b]pyridin-2-yl)ethyl)-1,2,3,6-tetrahydropyridin-4-yl)-N,N,3-trimethylbenzamide]	–
48.3 nM	760 nM	[2H]C([2H])([2H])N(C(=O)c1ccc(C2=CCN([C@H](C)c3cc4c(-c5ccc(N)cn5)ccnc4n3C)CC2)cc1)C([2H])([2H])[2H] [Example 1af46, (R)-4-(1-(1-(4-(5-amino-pyridin-2-yl)-1-methyl-1H-pyrrolo[2,3-b]pyridin-2-yl)ethyl)-1,2,3,6-tetrahydro-pyridin-4-yl)-N,N-bis(methyl-d3)benzamide]	–
11.4 nM	6000 nM	CN(C)C(=O)c1ccc(C2CCN(Cc3cc4c(-c5ccc(N)nc5)ccnc4n3C)CC2)cc1 [Example 1k3, 4-[1-[[4-(6-Amino-3-pyridyl)-1-methyl-pyrrolo[2,3-b]pyridin-2-yl]methyl]-4-piperidyl]-N,N-dimethyl-benzamide]	–
9.05 nM	–	CN(C)C(=O)c1ccc(C2CCN(Cc3cc4c(-c5ccc(N)c(C(=O)O)c5)ccnc4n3C)CC2)cc1 [Example 1k6, 2-Amino-5-[2-[[4-[4-(dimethylcarbamoyl)phenyl]-1-piperidyl]methyl]-1-methyl-pyrrolo[2,3-b]pyridin-4-yl]benzoic acid]	57%
30.5 nM	6590 nM	Cc1cc(-c2ccnc3c2cc(CN2CCC(c4ccc(C(=O)N(C)C)cc4)CC2)n3C)cnc1N [Example 1k11, 4-[1-[[4-(6-Amino-5-methyl-3-pyridyl)-1-methyl-pyrrolo[2,3-b]pyridin-2-yl]methyl]-4-piperidyl]-N,N-dimethyl-benzamide]	–
87.7 nM	14200 nM	CN(C)C(=O)c1ccc(C2CCN(Cc3cc4c(-c5cnc(N)nc5)ccnc4n3C)CC2)cc1 [Example 1k13, 4-[1-[[4-(2-Aminopyrimidin-5-yl)-1-methyl-pyrrolo[2,3-b]pyridin-2-yl]methyl]-4-piperidyl]-N,N-dimethyl-benzamide]	–
37.2 nM	–	CN(C)C(=O)c1ccc(C2CCN(Cc3cc4c(-c5cnc(N)c(F)c5)ccnc4n3C)CC2)cc1 [Example 1k14, 4-[1-[[4-(6-Amino-5-fluoro-3-pyridyl)-1-methyl-pyrrolo[2,3-b]pyridin-2-yl]methyl]-4-piperidyl]-N,N-dimethyl-benzamide]	65.6%
22.3 nM	1490 nM	COc1nc(N)ccc1-c1ccnc2c1cc(CN1CCC(c3ccc(C(=O)N(C)C)cc3)CC1)n2C [Example 1k22, 4-[1-[[4-(6-Amino-2-methoxy-3-pyridyl)-1-methyl-pyrrolo[2,3-b]pyridin-2-yl]methyl]-4-piperidyl]-N,N-dimethyl-benzamide]	–
31.4 nM	871 nM	CN(C)C(=O)c1ccc(C2CCN(Cc3cc4c(-c5ccc(N)nc5C#N)ccnc4n3C)CC2)cc1 [Example 1k43, 4-[1-[[4-(6-Amino-2-cyano-3-pyridyl)-1-methyl-pyrrolo[2,3-b]pyridin-2-yl]methyl]-4-piperidyl]-N,N-dimethyl-benzamide]	–
80.5 nM	–	CNc1cc(C)c(-c2ccnc3c2cc(CN2CCC(c4ccc(C(=O)N(C)C)cc4)CC2)n3C)cn1 [Example 1k51, N,N-Dimethyl-4-[1-[[1-methyl-4-[4-methyl-6-(methylamino)-3-pyridyl]pyrrolo[2,3-b]pyridin-2-yl]methyl]-4-piperidyl]benzamide]	43%
18.8 nM	6620 nM	CN(C)C(=O)c1ccc(C2CCN(Cc3cc4c(-c5ccc(N)cn5)ccnc4n3C)CC2)cc1 [Example 1k66, 4-(1-((4-(5-Aminopyridin-2-yl)-1-methyl-1H-pyrrolo[2,3-b]pyridin-2-yl)methyl)piperidin-4-yl)-N,N-dimethylbenzamide]	–
53.5 nM	–	CNc1ccc(-c2ccnc3c2cc(CN2CCC(c4ccc(C(=O)N(C)C)cc4)CC2)n3C)nc1 [Example 1k69, N,N-Dimethyl-4-(1-((1-methyl-4-(5-(methylamino)pyridin-2-yl)-1H-pyrrolo[2,3-b]pyridin-2-yl)methyl)piperidin-4-yl)benzamide]	72%
22.6 nM	–	CNc1ccc(-c2ccnc3c2cc(CN2CCC(c4ccc(C(=O)N(C)C)cc4)CC2)n3C)nn1 [Example 1k71, N,N-Dimethyl-4-[1-[[1-methyl-4-[6-(methylamino)pyridazin-3-yl]pyrrolo[2,3-b]pyridin-2-yl]methyl]-4-piperidyl]benzamide]	78.8%
50.3 nM	7610 nM	Cc1nc(-c2ccnc3c2cc(CN2CCC(c4ccc(C(=O)N(C)C)cc4)CC2)n3C)ccc1N [Example 1k73, 4-[1-[[4-(5-Amino-6-methyl-2-pyridyl)-1-methyl-pyrrolo[2,3-b]pyridin-2-yl]methyl]-4-piperidyl]-N,N-dimethyl-benzamide]	–
30.6 nM	2460 nM	CNc1ccc(-c2ccnc3c2cc(CN2CCC(c4ccc(C(=O)N(C)C)cc4F)CC2)n3C)nc1 [Example 1o23, 3-Fluoro-N,N-dimethyl-4-[1-[[1-methyl-4-[5-(methylamino)-2-pyridyl]pyrrolo[2,3-b]pyridin-2-yl]methyl]-4-piperidyl]benzamide]	–
